Test results published in patent US20040185108A1, “Method of preparing gas-filled polymer matrix microparticles useful for delivering drug” (priority 2003, published 2004).

Experiment: Release of oxybutynin using ultrasound from oxybutynin-containing polymer matrix microparticles (reverse phase HPLC)
Type: physicochemical
Protocol: Four vials containing product manufactured in accordance with Example 5 were each reconstituted with 10 mL of 20 mM KPO4 at pH 3.5 (wash solution). The oxybutynin containing microparticles from two of the vials were retrieved by centrifugation at 1500 rpm for 15 minutes. The microparticles were resuspended in 10 mL of wash solution and vortexed. The washing procedure was repeated two more times. The final washed matrix microparticles were resuspended in a total volume of 10 mL of wash solution. The remaining two vials were not washed. One vial from each set was designated the control sample and the other vial was the experimental sample.
The controls remained undisturbed for 80 minutes to allow the matrix microparticles to float. The subnatant was removed and centrifuged at 14,000 rpm for 2 minutes. The experimental samples were each sonicated for 1 minute on level 5 using a Virtis Virsonic hand-held sonicator. […] The suspensions were centrifuged at 14,000 rpm for 2 minutes. All four of the resulting supernatants were retrieved and analyzed by reverse phase HPLC. […] The amount of oxybutynin in each sample was calculated from the area using the standard curve.

burst release of oxybutynin, of the recovered amount (microparticles of Example 5): 34%
oxybutynin released due to sonication, of the recovered amount (microparticles of Example 5): 66%
amount of oxybutynin in supernatant, unwashed control sample (microparticles of Example 5, unwashed, not sonicated, undisturbed 80 minutes): 0.65 mg oxybutynin/vial
amount of oxybutynin in supernatant, unwashed experimental sample (microparticles of Example 5, unwashed, sonicated 1 minute level 5): 1.93 mg/vial
leakage of drug after reconstitution (microparticles of Example 5, washed control, burst release removed): little to no leakage
amount of oxybutynin in supernatant, washed control sample (microparticles of Example 5, washed, not sonicated, undisturbed 80 minutes, 20 mM KPO4 pH 3.5): 0.03 mg oxybutynin/vial
amount of oxybutynin in supernatant, washed experimental sample (microparticles of Example 5, washed, sonicated 1 minute level 5, 20 mM KPO4 pH 3.5): 1.05 mg/vial
total oxybutynin recovered after sonication compared to theoretical loading (microparticles of Example 5, theoretical loading 2.4 mg/vial): 80%
Compound: CCN(CC)CC#CCOC(=O)C(O)(c1ccccc1)C1CCCCC1 (centres unmarked) [oxybutynin]
